Test results as given in patent US20050208496A1, “Methods of testing for bronchial asthma or chronic obstructive pulmonary disease” (Genox Research, Inc., priority 2002, published 2005).

Test system: respiratory epithelial cells

IL-13: human IL-13 (Peprotech, Inc.) added to the medium at 50 ng/mL to stimulate respiratory epithelial cells
DPP4 (34823_at) expression fold change upon IL-13 stimulation (lot 2, Day 7, AI method): 10 fold
DPYD (38220_at) expression fold change upon IL-13 stimulation (lot 2, Day 7, AI method): 2.1 fold
FADS3 (43394_s_at) expression fold change (lot 2, Day 7, AI method): 9.8 fold
FLJ10261 (43366_at) expression fold change (lot 2, Day 7, AI method): 7.9 fold
FLJ10261 (43963_at) expression fold change (lot 2, Day 7, AI method): 6.2 fold
FLJ14281 (50209_at) expression fold change (lot 2, Day 7, AI method): 2 fold
FLJ22332 (56959_at) expression fold change (lot 2, Day 7, AI method): 3.6 fold
FLJ22693 (53777_at) expression fold change (lot 2, Day 7, AI method): 1.6 fold
G1P3 (1358_s_at) expression, fold change upon IL-13 stimulation (lot 2, Day 7, AI method): 10.9 fold
H11 (56474_at) expression fold change (lot 2, Day 7, AI method): 2.1 fold
HDAC9 (37483_at) expression fold change upon IL-13 stimulation (lot 2, Day 7, AI method): 26.1 fold
HLA-F (37420_i_at) expression, fold change upon IL-13 stimulation (lot 2, Day 7, AI method): 2.8 fold
HLA-F (37421_f_at) expression, fold change upon IL-13 stimulation (lot 2, Day 7, AI method): 2.2 fold
HLA-F (49203_f_at) expression fold change (lot 2, Day 7, AI method): 2.8 fold
HLALS (34427_g_at) expression, fold change upon IL-13 stimulation (lot 2, Day 7, AI method): 2 fold
HS3ST1 (41556_s_at) expression fold change upon IL-13 stimulation (lot 2, Day 7, AI method): 2.5 fold
HSD17B2 (38178_at) expression fold change upon IL-13 stimulation (lot 2, Day 7, AI method): 3.5 fold
HSPA5 (47634_at) expression fold change (lot 2, Day 7, AI method): 2.6 fold
HUMRTVLH3 (34702_f_at) expression, fold change upon IL-13 stimulation (lot 2, Day 7, AI method): 3.1 fold
Human hbc647 mRNA sequence (34759_at) expression, fold change upon IL-13 stimulation (lot 2, Day 7, AI method): 2.9 fold
ICAMt (32640_at) expression fold change upon IL-13 stimulation (lot 2, Day 7, AI method): 4.1 fold
IFI27 (425_at) expression, fold change upon IL-13 stimulation (lot 2, Day 7, AI method): 4.7 fold
IFI27 (48864_at) expression fold change (lot 2, Day 7, AI method): 3.3 fold
IFI30 (39728_at) expression, fold change upon IL-13 stimulation (lot 2, Day 7, AI method): 2.3 fold
IFIT1 (915_at) expression, fold change upon IL-13 stimulation (lot 2, Day 7, AI method): 7.7 fold
IFIT4 (38584_at) expression, fold change upon IL-13 stimulation (lot 2, Day 7, AI method): 3.6 fold
IL13RA2 (1016_s_at) expression fold change upon IL-13 stimulation (lot 2, Day 7, AI method): 36.5 fold
IRF7 (36412_s_at) expression fold change (lot 2, Day 7, AI method): 3.6 fold
IRLB (32961_at) expression fold change (lot 2, Day 7, AI method): 2 fold
ISG15 (1107_s_at) expression, fold change upon IL-13 stimulation (lot 2, Day 7, AI method): 4.3 fold
ISG15 (38432_at) expression, fold change upon IL-13 stimulation (lot 2, Day 7, AI method): 6.9 fold
KIAA0469 (37230_at) expression, fold change upon IL-13 stimulation (lot 2, Day 7, AI method): 3 fold
KIAA0537 (33787_at) expression, fold change upon IL-13 stimulation (lot 2, Day 7, AI method): 4.8 fold
KIAA1199 (36070_at) expression, fold change upon IL-13 stimulation (lot 2, Day 7, AI method): 3.4 fold
KIAA1268 (57050_at) expression fold change (lot 2, Day 7, AI method): 1.7 fold
KIAAI268 (59516_at) expression fold change (lot 2, Day 7, AI method): 5.9 fold
KRT16 (601_s_at) expression fold change (lot 2, Day 7, AI method): 2 fold
LAMP3 (37168_at) expression, fold change upon IL-13 stimulation (lot 2, Day 7, AI method): 3 fold
LOC64116 (40456_at) expression, fold change upon IL-13 stimulation (lot 2, Day 7, AI method): 3 fold
LRPAP1 (36194_at) expression, fold change upon IL-13 stimulation (lot 2, Day 7, AI method): 2.2 fold
MAT2A (32571_at) expression fold change upon IL-13 stimulation (lot 2, Day 7, AI method): 2.9 fold
MDA5 (51920_at) expression fold change (lot 2, Day 7, AI method): 2.8 fold
MED6 (35432_at) expression fold change (lot 2, Day 7, AI method): 2 fold
MET (1609_g_at) expression, fold change upon IL-13 stimulation (lot 2, Day 7, AI method): 3.4 fold
MET (1812_s_at) expression, fold change upon IL-13 stimulation (lot 2, Day 7, AI method): 5.8 fold
MET (35684_at) expression, fold change upon IL-13 stimulation (lot 2, Day 7, AI method): 2.4 fold
MFHAS1 (50388_at) expression fold change (lot 2, Day 7, AI method): 2.4 fold
MICB (35937_at) expression, fold change upon IL-13 stimulation (lot 2, Day 7, AI method): 5.6 fold
MKP-L (38272_at) expression, fold change upon IL-13 stimulation (lot 2, Day 7, AI method): 5.1 fold
MMP7 (668_s_at) expression, fold change upon IL-13 stimulation (lot 2, Day 7, AI method): 2 fold
MP1 (34839_at) expression, fold change upon IL-13 stimulation (lot 2, Day 7, AI method): 2.4 fold
MXI (37014_at) expression fold change (lot 2, Day 7, AI method): 4.2 fold
NCF2 (41038_at) expression fold change (lot 2, Day 7, AI method): 4.2 fold
NFIL3 (37544_at) expression fold change (lot 2, Day 7, AI method): 2.7 fold
NTRK1 (36805_s_at) expression, fold change upon IL-13 stimulation (lot 2, Day 7, AI method): 4.9 fold
OAF (39695_at) expression, fold change upon IL-13 stimulation (lot 2, Day 7, AI method): 11.4 fold
OSF-2 (1451_s_at) expression fold change upon IL-13 stimulation (lot 2, Day 7, AI method): 46.4 fold
PAK2 (1560_g_at) expression, fold change upon IL-13 stimulation (lot 2, Day 7, AI method): 3.8 fold
PITPNB (353_at) expression, fold change upon IL-13 stimulation (lot 2, Day 7, AI method): 2 fold
PITPNB (35017_f_at) expression, fold change upon IL-13 stimulation (lot 2, Day 7, AI method): 2.4 fold
PMCH (32005_at) expression fold change (lot 2, Day 7, AI method): 4.3 fold
PSMB9 (38287_at) expression fold change upon IL-13 stimulation (lot 2, Day 7, AI method): 2.4 fold
PVRL2 (50320_g_at) expression fold change (lot 2, Day 7, AI method): 2.2 fold
RASGRP1 (33291_at) expression fold change (lot 2, Day 7, AI method): 4.2 fold
SECTM1 (41045_at) expression, fold change upon IL-13 stimulation (lot 2, Day 7, AI method): 4.6 fold
SERPINB2 (37185_at) expression fold change (lot 2, Day 7, AI method): 3.4 fold
SERPINB4 (1549_s_at) expression fold change (lot 2, Day 7, AI method): 15 fold
SIAT1 (41352_at) expression fold change upon IL-13 stimulation (lot 2, Day 7, AI method): 2.4 fold
SLC26A4, pendrin (36376_at) expression fold change (lot 2, Day 7, AI method): 58.2 fold
SPHK1 (51923_at) expression fold change (lot 2, Day 7, AI method): 2.5 fold
SSI-1 (41592_at) expression, fold change upon IL-13 stimulation (lot 2, Day 7, AI method): 11.3 fold
STAT1 (32859_at) expression fold change (lot 2, Day 7, AI method): 2.6 fold
STAT1 (33339_g_at) expression fold change (lot 2, Day 7, AI method): 2.5 fold
TGFB2 (1262_s_at) expression fold change upon IL-13 stimulation (lot 2, Day 7, AI method): 5.9 fold
TGM2 (38404_at) expression fold change upon IL-13 stimulation (lot 2, Day 7, AI method): 6 fold
TSPAN-3 (38612_at) expression, fold change upon IL-13 stimulation (lot 2, Day 7, AI method): 2.7 fold
TXNRD1 (39425_at) expression fold change upon IL-13 stimulation (lot 2, Day 7, AI method): 3.3 fold
UFD1L (811_at) expression, fold change upon IL-13 stimulation (lot 2, Day 7, AI method): 3.2 fold
W06879 (57696_at) expression fold change (lot 2, Day 7, AI method): 2 fold
ZNF263 (33288_i_at) expression fold change (lot 2, Day 7, AI method): 2 fold
cig5 (38549_at) expression, fold change upon IL-13 stimulation (lot 2, Day 7, AI method): 7.4 fold
AA045020 (44676_at) expression change (lot 2 Day 7 AI): −7.1
AA053401 (56234_r_at) expression change (lot 2 Day 7 AI): −3.2
AA059445 46293_at expression change (lot 2 Day 7 AI): −11.7
AA059458 (65626_at) expression change (lot 2 Day 7 AI): −4.6
AA079839 (69289_at) expression change (lot 2 Day 7 AI): −2.3
AA151265 (60939_i_at) expression change (lot 2 Day 7 AI): −2.7
AA151265 (60940_r_at) expression change (lot 2 Day 7 AI): −11.6
AA160156 (47578_at) expression change (lot 2 Day 7 AI): −3.1
AA203423 (65699_at) expression change (lot 2 Day 7 AI): −4.7
AA369887 (87539_i_at) expression change (lot 2 Day 7 AI): −2.6
AA398155 (48999_at) expression change (lot 2 Day 7 AI): −3.8
AA400080 (57282_at) expression change (lot 2 Day 7 AI): −4.1
AA422178 (53747_at) expression change (lot 2 Day 7 AI): −32.2
AA428312 (83988_at) expression change (lot 2 Day 7 AI): −5.4
AA442232 (59109_at) expression change (lot 2 Day 7 AI): −2.2
AA456099 (59567_at) expression change (lot 2 Day 7 AI): −3.5
AA772055 46104_at expression change (lot 2 Day 7 AI): −15.1
AA779895 59136_at expression change (lot 2 Day 7 AI): −6.6
ABCC5 1932_at expression change (lot 2 Day 7 AI): −5
AF052107 38262_at expression change (lot 2 Day 7 AI): −6.5
AI264299 (84903_f_at) expression change (lot 2 Day 7 AI): −5.9
AI432375 (49819_at) expression change (lot 2 Day 7 AI): −5
AI669212 55436_at expression change (lot 2 Day 7 AI): −6.9
AI740855 (83076_at) expression change (lot 2 Day 7 AI): −3.5
AI761647 40191_s_at expression change (lot 2 Day 7 AI): −4
